Test results from patent US5597848A, “Benzenesulfonamide derivatives and use thereof” (Hokuriku Seiyaku Co., Ltd., priority 1992, dated 1997).
pIC50: −log10 of the molar value.

Experiments:
[1] = biological target: T1, leukotriene D4 (Cavia porcellus, UniProt Q2NNR5); assay: Leukotriene D4 antagonistic effect in isolated trachea (Schild method); parameters: species or system male Hartley guinea-pigs; details: isolated trachea, 30 min treatment, indomethacin 3×10^-6 M, Krebs 37° C.
T1 construct: tracheas were isolated from male Hartley guinea-pigs; from tissue; host or cells: isolated trachea of male Hartley guinea-pigs
T1 sequence (Q2NNR5 1-340): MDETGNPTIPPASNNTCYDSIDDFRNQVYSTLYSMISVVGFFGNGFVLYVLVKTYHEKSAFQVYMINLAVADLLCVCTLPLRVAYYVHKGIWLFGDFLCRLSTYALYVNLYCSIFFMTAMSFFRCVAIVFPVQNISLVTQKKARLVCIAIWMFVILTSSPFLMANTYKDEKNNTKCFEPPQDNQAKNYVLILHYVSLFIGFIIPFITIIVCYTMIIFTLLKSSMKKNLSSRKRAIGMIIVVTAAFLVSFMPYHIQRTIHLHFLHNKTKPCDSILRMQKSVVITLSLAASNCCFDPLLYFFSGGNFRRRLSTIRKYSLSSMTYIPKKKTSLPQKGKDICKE
Method: According to an ordinary method, tracheas were isolated from male Hartley guinea-pigs, and ring specimens of approximately […] length were prepared. These specimens were suspended isotonically in organ baths that contained Krebs solution at 37° C. under a resting tension of 0.5 g. After repeated contractions with acetylcholine (1×10^-6 M; Ovisot for injection, Daiichi Seiyaku), and the first concentration-response curves was obtained by cummulative applications of leukotriene D4 (ULTRA FINE) into the organ baths. After treatments with test compounds at adequate concentrations for 30 min, the second concentration-response curves were obtained in the same manner as first applications. pKB values were calculated using these two concentration-response curves according to the method of Schild [Pharmacological Review, Vol. 9, 242 (1957)]. Indomethacin (3×10^-6 M; Sigma) was added beforehand to the organ bath to eliminate possible affections by thromboxane A2 and prostaglandin produced by stimulus of leukotriene D4 [Japan J. Pharmacol., Vol. 60, 227 (1992)].

[2] = biological target: T2, thromboxane A2 receptor (Cavia porcellus, UniProt A0A286Y4I8); assay: Thromboxane A2 antagonistic effect: inhibition of U-46619-induced platelet aggregation in guinea-pig platelet-rich plasma; format: cell-based, guinea-pigs; details: guinea-pig PRP, U-46619 2 μg/ml, 2 min at 37° C.; read-out: IC50 (50% inhibition against platelet aggregation)
T2 construct: platelet-rich plasma; endogenous in cells; host or cells: guinea-pig platelets in platelet-rich plasma
T2 sequence (A0A286Y4I8 1-347): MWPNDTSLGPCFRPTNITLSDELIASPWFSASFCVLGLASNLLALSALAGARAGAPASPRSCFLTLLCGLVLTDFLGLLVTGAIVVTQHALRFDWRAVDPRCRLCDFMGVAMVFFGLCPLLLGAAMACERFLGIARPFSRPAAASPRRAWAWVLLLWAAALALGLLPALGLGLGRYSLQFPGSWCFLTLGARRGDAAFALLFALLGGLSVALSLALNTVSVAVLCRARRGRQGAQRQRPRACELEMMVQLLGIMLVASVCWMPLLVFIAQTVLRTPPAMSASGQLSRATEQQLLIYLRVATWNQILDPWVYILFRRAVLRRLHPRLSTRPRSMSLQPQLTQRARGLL
Method: Blood was collected from the abdominal aorta of guinea-pigs (about 400 g wt.) into 1/10 volume of 3.8% sodium citrate, and then platelet-rich plasma (PRP: 6×10^5 cells/μl) was obtained by centrifugation. A cuvette was filled with PRP 190 μl and set in an aggregometer (Hema Tracer I; Niko Bioscience). Incubation was carried out for 2 min. at 37° C. after the addition of 1 μl of dimethyl sulfoxide solution of test compounds. To the PRP, 10 μl of U-46619 (Cayman), a thromboxane A2 /prostaglandin H2 receptor agonist and potent platelet aggregation inducer, was added at the final concentration of 2 μg/ml, and platelet aggregation was measured by an aggregometer.

Row | Kb [1] [nM] | pIC50 [2] | SMILES
1 | 631 |  | CCCCC[C@H]1CC[C@H](C(NS(=O)(=O)c2ccc(Cl)cc2)c2ccc(CCCC(=O)O)cc2)CC1 (relative stereo) [Example 77, trans-4-[4-[(4-Chlorophenylsulfonylamino)(4-pentylcyclohexyl)methyl]phenyl]butyric Acid]
2 |  | 6.80 | CCC(NS(=O)(=O)c1ccc(Cl)cc1)c1ccc(CCCC(=O)O)cc1 (centres unmarked) [Example 64, 4-[4-[1-(4-Chlorophenylsulfonylamino)propyl]phenyl]butyric Acid]
3 |  | 6.49 | CC(C)(C)CC(NS(=O)(=O)c1ccc(Cl)cc1)c1ccc(CCCC(=O)O)cc1 (centres unmarked) [Example 72, 4-[4-[1-(4-Chlorophenylsulfonylamino)-3,3-dimethylbutyl]phenyl]butyric Acid]
4 | 398 | 6.49 | O=C(O)CCCc1ccc(C(NS(=O)(=O)c2ccc(Cl)cc2)C2CCCCCC2)cc1 (centres unmarked) [Example 75, 4-[4-[(4-Chlorophenylsulfonylamino)cycloheptylmethyl]phenyl]butyric Acid]
5 | 1000 | 6.49 | O=C(O)CCCc1ccc(C(CC2CCCC2)NS(=O)(=O)c2ccc(Cl)cc2)cc1 (centres unmarked) [Example 78, 4-[4-[1-(4-Chlorophenylsulfonylamino)-2-cyclopentylethyl]phenyl]butyric Acid]
6 |  | 6.40 | O=C(O)CCCc1ccc(C(CCCCC2CCCCC2)NS(=O)(=O)c2ccc(Cl)cc2)cc1 (centres unmarked) [Example 82, 4-[4-[1-(4-Chlorophenylsulfonylamino)-5-cyclohexylpentyl]phenyl]butyric Acid]
7 | 158 | 6.40 | O=C(O)CCCc1ccc(C(CC2CC3CCC2C3)NS(=O)(=O)c2ccc(Cl)cc2)cc1 (centres unmarked) [Example 85, 4-[4-[1-(4-Chlorophenylsulfonylamino)-2-(2-norbornyl)ethyl]phenyl]butyric Acid]
8 |  | 6.10 | CCCCCCCC(NS(=O)(=O)c1ccc(Cl)cc1)c1ccc(CCCC(=O)O)cc1 (centres unmarked) [Example 100, 4-[4-[1-(4-Chlorophenylsulfonylamino)octyl]phenyl]butyric Acid]
9 | 39.8 | 6.40 | O=C(O)CCCCc1ccc(C(CC2CCCCC2)NS(=O)(=O)c2ccc(Cl)cc2)cc1 (centres unmarked) [Example 113, 5-[4-[1-(4-Chlorophenylsulfonylamino)-2-cyclohexylethyl]phenyl]valeric Acid]
10 |  | 6.49 | O=C(O)CCCc1ccc(C(CCCCc2ccccc2)NS(=O)(=O)c2ccc(Cl)cc2)cc1 (centres unmarked) [Example 115, 4-[4-[1-(4-Chlorophenylsulfonylamino)-5-phenylpentyl]phenyl]-butyric Acid]
11 | 200 | 6.30 | O=C(O)CCCc1ccc(C(CCCCCc2ccccc2)NS(=O)(=O)c2ccc(Cl)cc2)cc1 (centres unmarked) [Example 116, 4-[4-[1-(4-Chlorophenylsulfonylamino)-6-phenylhexyl]phenyl]butyric Acid]

More lines, now with the values behind:

Row | SMILES | Kb [1] [nM] | pIC50 [2]
12 | C[C@H]1CC[C@H](C(NS(=O)(=O)c2ccc(Cl)cc2)c2ccc(CCCC(=O)O)cc2)CC1 (relative stereo) [Example 76, trans-4-[4-[(4-Chlorophenylsulfonylamino)(4-methylcyclohexyl)methyl]phenyl]butyric Acid] | 200 | 
13 | CC(C)CC(NS(=O)(=O)c1ccc(Cl)cc1)c1ccc(CCCC(=O)O)cc1 (centres unmarked) [Example 70, 4-[4-[1-(4-Chlorophenylsulfonylamino)-3-methylbutyl]phenyl]butyric Acid] |  | 6.49
14 | O=C(O)CCCc1ccc(C(CC23CC4CC(CC(C4)C2)C3)NS(=O)(=O)c2ccc(Cl)cc2)cc1 (centres unmarked) [Example 84, 4-[4-[2-(1-Adamantyl)-1-(4-chlorophenylsulfonylamino)ethyl]phenyl]butyric Acid] | 200 | 
15 | O=C(O)CCc1ccc(C(Cc2ccccc2)NS(=O)(=O)c2ccc(Cl)cc2)cc1 (centres unmarked) [Example 86, 3-[4-[1-(4-Chlorophenylsulfonylamino)-2-phenylethyl]phenyl]propionic Acid] |  | 6.60
16 | O=C(O)CCCc1ccc(C(Cc2ccccc2)NS(=O)(=O)c2ccccc2)cc1 (centres unmarked) [Example 87, 4-[4-[2-phenyl-1-(phenylsulfonylamino)ethyl]phenyl]butyric Acid] |  | 6.49
17 | O=C(O)CCCc1ccc(C(Cc2ccccc2)NS(=O)(=O)c2ccc(F)cc2)cc1 (centres unmarked) [Example 88, 4-[4-[1-(4-Fluorophenylsulfonylamino)-2-phenylethyl]phenyl]butyric Acid] |  | 6.49
18 | O=C(O)CCCc1ccc(C(Cc2ccccc2)NS(=O)(=O)c2ccc(Br)cc2)cc1 (centres unmarked) [Example 89, 4-[4-[1-(4-Bromophenylsulfonylamino)-2-phenylethyl]phenyl]butyric Acid] |  | 7.49
19 | Cc1ccc(S(=O)(=O)NC(Cc2ccccc2)c2ccc(CCCC(=O)O)cc2)cc1 (centres unmarked) [Example 90, 4-[4-[1-(p-Tolylsulfonylamino)-2-phenylethyl]phenyl]butyric Acid] |  | 6.49
20 | COc1ccc(S(=O)(=O)NC(Cc2ccccc2)c2ccc(CCCC(=O)O)cc2)cc1 (centres unmarked) [Example 91, 4-[4-[1-(4-Methoxyphenylsulfonylamino)-2-phenylethyl]phenyl]butyric Acid] |  | 6.49
21 | O=C(O)CCCCc1ccc(C(Cc2ccccc2)NS(=O)(=O)c2ccc(Cl)cc2)cc1 (centres unmarked) [Example 92, 5-[4-[1-(4-Chlorophenylsulfonylamino)-2-phenylethyl]phenyl]valeric Acid] |  | 6.49
22 | O=C(O)CCCc1ccc(C(Cc2ccccc2F)NS(=O)(=O)c2ccc(Cl)cc2)cc1 (centres unmarked) [Example 93, 4-[4-[1-(4-Chlorophenylsulfonylamino)-2-(2-fluorophenyl)ethyl]phenyl]butyric Acid] |  | 6.49
23 | O=C(O)CCCc1ccc(C(Cc2cccc(F)c2)NS(=O)(=O)c2ccc(Cl)cc2)cc1 (centres unmarked) [Example 94, 4-[4-[1-(4-Chlorophenylsulfonylamino)-2-(3-fluorophenyl)ethyl]phenyl]butyric Acid] |  | 7.20
24 | O=C(O)CCCc1ccc(C(Cc2ccc(F)cc2)NS(=O)(=O)c2ccc(Cl)cc2)cc1 (centres unmarked) [Example 95, 4-[4-[1-(4-Chlorophenylsulfonylamino)-2-(4-fluorophenyl)ethyl]phenyl]butyric Acid] | 501 | 6.80
25 | O=C(O)CCCc1ccc(C(CCCc2ccccc2)NS(=O)(=O)c2ccc(Cl)cc2)cc1 (centres unmarked) [Example 114, 4-[4-[1-(4-Chlorophenylsulfonylamino)-4-phenylbutyl]phenyl]butyric Acid] |  | 6.49
26 | CCCCc1ccc(CCC(NS(=O)(=O)c2ccc(Cl)cc2)c2ccc(CCCC(=O)O)cc2)cc1 (centres unmarked) [Example 117, 4-[4-[3-(4-Butylphenyl)-1-(4-chlorophenylsulfonylamino)propyl]phenyl]butyric Acid] | 251 | 
